From US5747466A, “3-deoxy-3-descladinose derivatives of erythromycins A and B” (Abbott Laboratories, priority 1996, dated 1998)
Like-named read-outs stand apart in the source and are kept apart here.

Legend:
Experiment in all cases: In vitro antibacterial activity (MIC), agar dilution
[1] = test system: STAPHYLOCOCCUS AUREUS 1775; type: cell-based; details: S. aureus 1775; BHI agar, 35-37 °C, 20-24 h
[2] = test system: CANDIDA ALBICANS CCH 442; type: cell-based; details: C. albicans CCH 442; BHI agar, 35-37 °C, 20-24 h
[3] = test system: STAPHYLOCOCCUS AUREUS CMX 553; type: cell-based; details: S. aureus CMX 553; BHI agar, 35-37 °C, 20-24 h
[4] = test system: STREPTOCOCCUS PYOGENES EES61; type: cell-based; details: S. pyogenes EES61; BHI agar, 35-37 °C, 20-24 h
[5] = test system: MYCOBACTERIUM SMEGMATIS ATCC 114; type: cell-based; details: M. smegmatis ATCC 114; BHI agar, 35-37 °C, 20-24 h
[6] = test system: PSEUDOMONAS AERUGINOSA DPHD-2862; type: cell-based; details: P. aeruginosa DPHD-2862; BHI agar, 35-37 °C, 20-24 h
[7] = test system: EN[…] ATCC 8043; type: cell-based, Enterococcus faecium; details: E. faecium ATCC 8043; BHI agar, 35-37 °C, 20-24 h
Description: Representative compounds of the present invention were assayed in vitro for antibacterial activity as follows: Twelve petri dishes containing successive aqueous dilutions of the test compound mixed with 10 mL of sterilized Brain Heart Infusion (BHI) agar (Difco 0418-01-5) were prepared. Each plate was inoculated with 1:100 (or 1:10 for slow-growing strains, such as Micrococcus and Streptococcus) dilutions of up to 32 different microorganisms, using a Steers replicator block. The inoculated plates were incubated at 35°-37° C. for 20 to 24 hours. In addition, a control plate, using BHI agar containing no test compound, was prepared and incubated at the beginning and end of each test.
An additional plate containing a compound having known susceptibility patterns for the organisms being tested and belonging to the same antibiotic class as the test compound was also prepared and incubated as a further control, as well as to provide test-to-test comparability. Erythromycin A was used for this purpose.
After incubation, each plate was examined. The minimum inhibitory concentration (MIC) was defined as the lowest concentration of drug yielding no growth, a slight haze, or sparsely isolated colonies on the inoculum spot as compared to the growth control.

[8] = test system: PSEUDOMONAS AERUGINOSA K799/61; type: cell-based; details: P. aeruginosa K799/61; BHI agar, 35-37 °C, 20-24 h
[9] = test system: ESCHERICHIA COLI KNK 437; type: cell-based
[10] = E. coli KNK 437, BHI agar, 35-37 °C, 20-24 h

Row | Compound | minimum inhibitory concentration (MIC) [1] | minimum inhibitory concentration (MIC) [2] | minimum inhibitory concentration (MIC) [3] | minimum inhibitory concentration (MIC) [4] | minimum inhibitory concentration (MIC) [5] | minimum inhibitory concentration (MIC) [6] | minimum inhibitory concentration (MIC) [7] | minimum inhibitory concentration (MIC) [8] | minimum inhibitory concentration (MIC) [9] | minimum inhibitory concentration (MIC) [9, 10]
1 | CC[C@H]1OC(=O)[C@H](C)[C@@H](O[C@H]2C[C@@](C)(OC)[C@@H](O)[C@H](C)O2)[C@H](C)[C@@H](O[C@@H]2O[C@H](C)C[C@H](N(C)C)[C@H]2O)[C@](C)(O)C[C@@H](C)C(=O)[C@H](C)[C@@H](O)[C@]1(C)O [Ery A, Erythromycin A, reference compound] | > 100 | > 100 | 0.2 | 0.02 | 25 | 100 | 0.05 | 1.56 | 100 | –
2 | CC[C@H]1OC(=O)[C@H](C)C[C@H](C)[C@@H](O[C@@H]2O[C@H](C)C[C@H](N(C)C)[C@H]2O)[C@](C)(OC)C[C@@H](C)C(=O)[C@H](C)[C@@H](O)[C@]1(C)O [Ex. 1] | > 100 | > 100 | 25 | 1.56 | 100 | > 100 | 25 | > 100 | – | > 100
3 | CC[C@H]1OC(=O)[C@H](C)C[C@H](C)[C@@H](O[C@@H]2O[C@H](C)C[C@H](N(C)C)[C@H]2O)[C@](C)(OC)C[C@@H](C)C(=NO)[C@H](C)[C@@H](O)[C@]1(C)O [Ex. 2] | > 100 | > 100 | 12.5 | 0.78 | 6.2 | > 100 | 3.1 | > 100 | – | > 100
4 | CC[C@H]1OC(=O)[C@H](C)C[C@H](C)[C@@H](O[C@@H]2O[C@H](C)C[C@H](N(C)C)[C@H]2O)[C@](C)(OC)C[C@@H](C)C(=O)[C@H](C)[C@H]2OC(=O)O[C@@]21C [Ex. 3] | > 100 | > 100 | 3.1 | 0.2 | 3.1 | > 100 | 0.78 | > 100 | – | > 100
5 | CC[C@H]1OC(=O)[C@H](C)C[C@H](C)[C@@H](O[C@@H]2O[C@H](C)C[C@H](N(C)C)[C@H]2O)[C@](C)(OC)C[C@@H](C)C(=O)[C@H](C)[C@H]2N(CCCCc3ccccc3)C(=O)O[C@]12C [Ex. 4] | 50 | 100 | 1.56 | 0.05 | 1.56 | > 100 | 0.39 | 12.5 | – | > 100
6 | CC[C@H]1OC(=O)[C@H](C)C[C@H](C)[C@@H](O[C@@H]2O[C@H](C)C[C@H](N(C)C)[C@H]2O)[C@](C)(OC)C[C@@H](C)C(=O)[C@H](C)[C@H]2N(CCc3ccc(Oc4ccccc4)cc3)C(=O)O[C@]12C [Ex. 5] | 25 | 100 | 6.2 | 1.56 | 3.1 | > 100 | 1.56 | > 100 | – | > 100
7 | CC[C@H]1OC(=O)[C@H](C)C[C@H](C)[C@@H](O[C@@H]2O[C@H](C)C[C@H](N(C)C)[C@H]2O)[C@](C)(OC)C[C@@H](C)C(=NOC)[C@H](C)[C@@H](O)[C@]1(C)O [Ex. 6] | > 100 | > 100 | 6.2 | 0.39 | 3.1 | > 100 | 0.78 | > 100 | – | 25
8 | CC[C@H]1OC(=O)[C@H](C)C[C@H](C)[C@@H](O[C@@H]2O[C@H](C)C[C@H](N(C)C)[C@H]2O)[C@](C)(OC)C[C@@H](C)C(=NOCOCCOC)[C@H](C)[C@@H](O)[C@]1(C)O [Ex. 8] | > 100 | > 100 | 0.2 | 0.02 | 25 | 100 | 0.05 | 1.56 | – | 100
